Source: patent US7399866B2, “Compounds, compositions, and methods” (Cytokinetics, Inc., priority 2003, dated 2008)

SMILES: CC(=O)N1CCC[C@@H](Oc2cc(F)cc(NC(=O)Nc3cccnc3)c2)C1 [Example 1, (R)-1-[3-(1-Acetyl-piperidin-3-yloxy)-5-fluoro-phenyl]-3-pyridin-3-yl-urea]
- melting point: 145 °C
